Assay results reported in ChEMBL document CHEMBL4190286, “Modulating the Serotonin Receptor Spectrum of Pulicatin Natural Products” (J Nat Prod, 2017).

Tests used:
[1] = target: T1, 5-hydroxytryptamine receptor 6 (Homo sapiens, UniProt P50406); test: Binding affinity to 5-HT6 receptor (unknown origin) by radioligand binding assay
[2] = target: T2, 5-hydroxytryptamine receptor 2B (Homo sapiens, UniProt P41595); test: Displacement of [3H]-LSD from human 5-HT2B receptor expressed in baculovirus infected Sf9 cells
T2 sequence (P41595 whole entry): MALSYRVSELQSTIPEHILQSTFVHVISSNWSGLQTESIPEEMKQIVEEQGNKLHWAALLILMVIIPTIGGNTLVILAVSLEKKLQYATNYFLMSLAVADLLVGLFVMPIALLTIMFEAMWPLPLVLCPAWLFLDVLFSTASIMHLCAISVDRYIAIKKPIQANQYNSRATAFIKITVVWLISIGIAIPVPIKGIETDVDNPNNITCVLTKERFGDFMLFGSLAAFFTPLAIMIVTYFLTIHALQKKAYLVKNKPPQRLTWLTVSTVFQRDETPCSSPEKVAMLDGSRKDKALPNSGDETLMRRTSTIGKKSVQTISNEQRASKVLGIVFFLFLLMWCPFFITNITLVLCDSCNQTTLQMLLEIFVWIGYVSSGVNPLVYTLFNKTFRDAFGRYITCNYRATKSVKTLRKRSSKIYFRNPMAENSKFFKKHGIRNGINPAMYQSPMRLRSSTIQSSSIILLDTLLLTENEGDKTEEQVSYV

[3] = target: T3, 5-hydroxytryptamine receptor 2C (Homo sapiens, UniProt P28335); test: Binding affinity to 5-HT2C receptor (unknown origin) by radioligand binding assay
T3 sequence (P28335 whole entry): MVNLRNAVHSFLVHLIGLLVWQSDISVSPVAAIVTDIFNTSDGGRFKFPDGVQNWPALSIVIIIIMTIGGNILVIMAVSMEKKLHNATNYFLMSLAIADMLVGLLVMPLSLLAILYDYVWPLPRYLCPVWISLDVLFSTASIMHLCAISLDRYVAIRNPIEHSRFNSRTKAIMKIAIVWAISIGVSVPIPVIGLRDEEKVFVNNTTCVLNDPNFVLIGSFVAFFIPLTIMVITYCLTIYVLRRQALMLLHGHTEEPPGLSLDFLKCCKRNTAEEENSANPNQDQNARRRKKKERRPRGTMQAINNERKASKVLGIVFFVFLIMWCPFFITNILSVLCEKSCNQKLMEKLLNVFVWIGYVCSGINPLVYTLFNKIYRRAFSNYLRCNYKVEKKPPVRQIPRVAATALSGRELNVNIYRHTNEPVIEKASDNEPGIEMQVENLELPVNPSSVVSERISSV

[4] = target: T4, 5-hydroxytryptamine receptor 2A (Homo sapiens, UniProt P28223); test: Binding affinity to 5-HT2A receptor (unknown origin) by radioligand binding assay
T4 sequence (P28223 whole entry): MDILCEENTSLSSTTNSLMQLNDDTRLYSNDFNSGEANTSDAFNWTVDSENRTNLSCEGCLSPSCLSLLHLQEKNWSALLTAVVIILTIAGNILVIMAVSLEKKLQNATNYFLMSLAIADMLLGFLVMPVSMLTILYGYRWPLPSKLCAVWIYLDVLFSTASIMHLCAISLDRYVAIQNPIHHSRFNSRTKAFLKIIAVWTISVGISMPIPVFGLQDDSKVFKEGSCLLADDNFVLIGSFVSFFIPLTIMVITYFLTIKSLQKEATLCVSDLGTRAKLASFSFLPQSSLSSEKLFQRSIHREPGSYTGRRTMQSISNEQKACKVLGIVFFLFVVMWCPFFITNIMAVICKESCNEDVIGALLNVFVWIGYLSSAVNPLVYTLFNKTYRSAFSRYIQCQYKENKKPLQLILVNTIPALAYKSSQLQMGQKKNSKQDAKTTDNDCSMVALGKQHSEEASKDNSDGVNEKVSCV

[5] = target: T5, 5-hydroxytryptamine receptor 1E (Homo sapiens, UniProt P28566); test: Binding affinity to 5-HT1E receptor (unknown origin) by radioligand binding assay
T5 sequence (P28566 whole entry): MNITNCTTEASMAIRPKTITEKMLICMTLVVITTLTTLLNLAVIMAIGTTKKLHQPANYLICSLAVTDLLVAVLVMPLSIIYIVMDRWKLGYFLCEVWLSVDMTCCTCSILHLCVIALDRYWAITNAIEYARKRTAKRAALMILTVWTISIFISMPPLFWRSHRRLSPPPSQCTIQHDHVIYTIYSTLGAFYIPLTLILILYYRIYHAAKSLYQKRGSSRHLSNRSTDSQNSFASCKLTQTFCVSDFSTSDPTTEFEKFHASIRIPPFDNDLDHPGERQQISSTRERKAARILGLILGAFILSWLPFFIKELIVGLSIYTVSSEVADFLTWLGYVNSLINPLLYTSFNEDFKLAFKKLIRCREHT

[6] = target: T6, 5-hydroxytryptamine receptor 1B (Homo sapiens, UniProt P28222); test: Displacement of [3H]-LSD from human 5-HT1B receptor expressed in baculovirus infected Sf9 cells
T6 sequence (P28222 whole entry): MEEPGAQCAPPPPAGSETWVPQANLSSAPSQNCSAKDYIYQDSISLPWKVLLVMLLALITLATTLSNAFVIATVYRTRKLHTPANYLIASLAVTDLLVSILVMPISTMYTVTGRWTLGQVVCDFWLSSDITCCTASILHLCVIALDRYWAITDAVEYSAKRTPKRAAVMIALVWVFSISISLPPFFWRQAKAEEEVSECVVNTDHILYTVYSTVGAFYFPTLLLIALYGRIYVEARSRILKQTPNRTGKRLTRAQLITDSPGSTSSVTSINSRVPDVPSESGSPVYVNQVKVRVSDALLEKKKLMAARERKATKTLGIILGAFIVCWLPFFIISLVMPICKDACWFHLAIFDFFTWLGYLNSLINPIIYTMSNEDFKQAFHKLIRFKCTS

[7] = target: T7, 5-hydroxytryptamine receptor 3A (Homo sapiens, UniProt P46098); test: Binding affinity to 5-HT3 receptor (unknown origin) by radioligand binding assay
T7 sequence (P46098 whole entry): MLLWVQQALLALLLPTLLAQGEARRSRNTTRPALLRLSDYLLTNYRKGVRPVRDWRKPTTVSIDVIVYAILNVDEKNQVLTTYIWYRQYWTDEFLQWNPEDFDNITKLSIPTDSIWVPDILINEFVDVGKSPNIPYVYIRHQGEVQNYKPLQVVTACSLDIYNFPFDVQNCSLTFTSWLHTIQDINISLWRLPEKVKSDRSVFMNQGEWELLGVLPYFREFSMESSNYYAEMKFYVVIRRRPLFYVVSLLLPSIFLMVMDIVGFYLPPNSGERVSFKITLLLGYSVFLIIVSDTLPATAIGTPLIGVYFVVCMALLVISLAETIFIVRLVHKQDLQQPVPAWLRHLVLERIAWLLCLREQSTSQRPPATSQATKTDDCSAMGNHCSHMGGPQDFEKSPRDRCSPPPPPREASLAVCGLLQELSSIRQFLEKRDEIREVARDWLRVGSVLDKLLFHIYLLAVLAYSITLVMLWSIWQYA

[8] = target: T8, 5-hydroxytryptamine receptor 5A (Homo sapiens, UniProt P47898); test: Binding affinity to 5-HT5A receptor (unknown origin) by radioligand binding assay
T8 sequence (P47898 whole entry): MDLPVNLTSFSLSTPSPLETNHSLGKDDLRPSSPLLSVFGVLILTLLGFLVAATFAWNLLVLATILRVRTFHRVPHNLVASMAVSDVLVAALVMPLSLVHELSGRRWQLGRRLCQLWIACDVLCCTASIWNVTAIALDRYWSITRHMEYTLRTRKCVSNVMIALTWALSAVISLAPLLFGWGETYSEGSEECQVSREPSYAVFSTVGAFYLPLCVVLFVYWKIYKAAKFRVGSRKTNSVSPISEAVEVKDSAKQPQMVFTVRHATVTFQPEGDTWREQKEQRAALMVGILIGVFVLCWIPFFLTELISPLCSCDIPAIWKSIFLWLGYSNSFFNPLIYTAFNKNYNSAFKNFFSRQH

[9] = target: T9, 5-hydroxytryptamine receptor 1D (Homo sapiens, UniProt P28221); test: Binding affinity to 5-HT1D receptor (unknown origin) by radioligand binding assay
T9 sequence (P28221 whole entry): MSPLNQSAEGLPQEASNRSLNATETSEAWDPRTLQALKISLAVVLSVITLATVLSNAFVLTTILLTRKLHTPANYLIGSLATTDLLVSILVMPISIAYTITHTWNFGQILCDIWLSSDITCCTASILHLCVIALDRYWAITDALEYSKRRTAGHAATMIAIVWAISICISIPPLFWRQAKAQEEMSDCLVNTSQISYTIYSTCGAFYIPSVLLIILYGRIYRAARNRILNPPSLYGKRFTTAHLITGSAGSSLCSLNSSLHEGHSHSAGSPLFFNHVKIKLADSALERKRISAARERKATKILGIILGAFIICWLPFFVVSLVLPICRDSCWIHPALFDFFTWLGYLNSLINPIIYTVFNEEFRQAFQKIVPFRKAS

[10] = target: T10, 5-hydroxytryptamine receptor 7 (Homo sapiens, UniProt P34969); test: Binding affinity to 5-HT7A receptor (unknown origin) by radioligand binding assay
T10 sequence (P34969 whole entry): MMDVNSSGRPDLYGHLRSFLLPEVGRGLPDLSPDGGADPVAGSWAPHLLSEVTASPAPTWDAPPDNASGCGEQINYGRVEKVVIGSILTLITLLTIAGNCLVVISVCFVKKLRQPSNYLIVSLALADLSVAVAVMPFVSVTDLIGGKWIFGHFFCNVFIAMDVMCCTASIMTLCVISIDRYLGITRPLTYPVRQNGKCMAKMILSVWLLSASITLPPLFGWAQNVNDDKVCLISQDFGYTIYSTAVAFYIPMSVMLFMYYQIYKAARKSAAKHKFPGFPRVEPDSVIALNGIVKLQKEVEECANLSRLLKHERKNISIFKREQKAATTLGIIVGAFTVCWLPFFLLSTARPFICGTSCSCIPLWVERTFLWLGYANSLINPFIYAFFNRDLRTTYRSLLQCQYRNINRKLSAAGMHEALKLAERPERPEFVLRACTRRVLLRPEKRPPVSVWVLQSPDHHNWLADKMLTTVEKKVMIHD

[11] = target: T7, 5-hydroxytryptamine receptor 3A; test: Displacement of [3H]-GR65630 from human 5-HT3 receptor expressed in HEKT cells after 90 mins by microbeta scintillation counting analysis; assay type: cell-based
[12] = target: T10, 5-hydroxytryptamine receptor 7; test: Displacement of [3H]-LSD from human 5-HT7A receptor expressed in HEK cells after 90 mins by microbeta scintillation counting analysis; assay type: cell-based
[13] = target: T3, 5-hydroxytryptamine receptor 2C; test: Displacement of [3H]-Mesulergine from human 5-HT2C receptor expressed in HEKT cells after 90 mins by microbeta scintillation counting analysis; assay type: cell-based
[14] = target: T9, 5-hydroxytryptamine receptor 1D; test: Displacement of [3H]5-CT from human 5-HT1D receptor expressed in HEKT cells after 90 mins by microbeta scintillation counting analysis; assay type: cell-based
[15] = target: T5, 5-hydroxytryptamine receptor 1E; test: Displacement of [3H]5-HT from human 5-HT1E receptor expressed in HEK cells after 90 mins by microbeta scintillation counting analysis; assay type: cell-based
[16] = target: T4, 5-hydroxytryptamine receptor 2A; test: Displacement of [3H]Ketanserin from 5-HT2A (unknown origin) receptor after 90 mins by microbeta scintillation counting analysis
[17] = target: T2, 5-hydroxytryptamine receptor 2B; test: Displacement of [3H]-LSD from human 5-HT2B receptor expressed in HEK cells after 90 mins by microbeta scintillation counting analysis; assay type: cell-based
[18] = target: T8, 5-hydroxytryptamine receptor 5A; test: Displacement of [3H]-LSD from human 5-HT5A receptor expressed in Flp-In CHO cells after 90 mins by microbeta scintillation counting analysis; assay type: cell-based
[19] = target: T1, 5-hydroxytryptamine receptor 6; test: Displacement of [3H]-LSD from human 5-HT6 receptor expressed in HEK cells after 90 mins by microbeta scintillation counting analysis; assay type: cell-based
[20] = target: T6, 5-hydroxytryptamine receptor 1B; test: Displacement of [3H]5-CT from human 5-HT1B receptor expressed in HEK cells after 90 mins by microbeta scintillation counting analysis; assay type: cell-based
[21] = target: T11, 5-hydroxytryptamine receptor 1A (Homo sapiens, UniProt P08908); test: Antagonist activity at 5-HT1A receptor (unknown origin) by Tango assay; assay type: functional
T11 sequence (P08908 whole entry): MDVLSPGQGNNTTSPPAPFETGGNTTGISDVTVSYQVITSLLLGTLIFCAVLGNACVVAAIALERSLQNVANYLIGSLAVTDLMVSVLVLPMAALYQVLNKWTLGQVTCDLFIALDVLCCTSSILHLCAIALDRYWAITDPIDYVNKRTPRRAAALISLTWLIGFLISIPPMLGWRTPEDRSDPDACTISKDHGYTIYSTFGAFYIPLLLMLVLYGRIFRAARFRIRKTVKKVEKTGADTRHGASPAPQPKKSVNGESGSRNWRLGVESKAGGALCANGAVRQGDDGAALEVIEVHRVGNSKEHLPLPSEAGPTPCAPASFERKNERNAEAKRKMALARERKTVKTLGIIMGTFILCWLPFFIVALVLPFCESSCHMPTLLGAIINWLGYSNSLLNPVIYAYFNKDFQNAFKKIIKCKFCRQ

T1 sequence (P50406 whole entry): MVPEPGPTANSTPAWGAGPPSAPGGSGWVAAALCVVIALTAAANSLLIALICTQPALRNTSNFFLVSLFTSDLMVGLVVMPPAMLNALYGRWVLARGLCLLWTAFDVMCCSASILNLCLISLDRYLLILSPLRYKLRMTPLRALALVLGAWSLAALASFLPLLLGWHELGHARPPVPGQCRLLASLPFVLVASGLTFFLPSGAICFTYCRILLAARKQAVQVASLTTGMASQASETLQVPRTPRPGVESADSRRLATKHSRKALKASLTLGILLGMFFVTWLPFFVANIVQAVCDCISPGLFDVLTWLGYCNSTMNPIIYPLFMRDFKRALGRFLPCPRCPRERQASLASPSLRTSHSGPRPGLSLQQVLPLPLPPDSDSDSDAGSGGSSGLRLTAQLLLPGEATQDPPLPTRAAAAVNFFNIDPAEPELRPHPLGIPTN

Structure (SMILES)	Ki [11] [µM]	Ki [12] [µM]	Ki [13] [µM]	Ki [14] [µM]	Ki [15] [µM]	Ki [16] [µM]	Ki [17] [µM]	Ki [18] [µM]	Ki [19] [µM]	Ki [20] [µM]	also measured
C[C@@H]1SC(c2ccccc2O)=N[C@H]1[C@H]1SC[C@](C)(C(=O)O)N1C [WATASEMYCINS B]	–	–	–	–	–	–	–	–	–	–	Ki [1]: > 10 µM; Ki [2]: 3.9 µM; Ki [3]: > 10 µM; Ki [4]: > 10 µM; Ki [5]: > 10 µM; Ki [6]: > 10 µM; Ki [7]: > 10 µM; Ki [8]: > 10 µM; Ki [9]: > 10 µM; Ki [10]: > 10 µM
Oc1ccccc1C1=NC(Cc2c[nH]cn2)CS1 (racemic)	0.95	7.4	> 10	1.9	> 10	> 10	0.1	> 10	> 10	> 10	–
C[C@@H]1SC(c2ccc(-c3ccccc3)cc2)=N[C@H]1Cc1c[nH]cn1 (relative stereo)	–	–	1.4	–	–	0.24	1.1	–	–	–	–
C[C@H]1SC(c2ccccc2O)=N[C@H]1CO	–	–	–	–	–	–	0.4	–	–	–	–
NC(=O)C1CSC(c2ccccc2O)=N1 (racemic) [PULICATINS G]	–	–	–	–	–	–	–	–	–	–	Ki [1]: > 10 µM; Ki [3]: > 10 µM; Ki [4]: > 10 µM; Ki [5]: > 10 µM; Ki [6]: > 10 µM; Ki [7]: > 10 µM; Ki [8]: > 10 µM; Ki [9]: > 10 µM; Ki [10]: > 10 µM
Oc1ccccc1C1=N[C@@H]2CCC[C@@H]2S1 (racemic)	> 10	> 10	> 10	> 10	> 10	> 10	> 10	> 10	> 10	> 10	–
NC(=O)c1csc(-c2ccccc2O)n1 [PULICATINS F]	–	–	–	–	–	–	–	–	–	–	Ki [1]: > 10 µM; Ki [3]: > 10 µM; Ki [4]: > 10 µM; Ki [5]: > 10 µM; Ki [6]: > 10 µM; Ki [7]: > 10 µM; Ki [8]: > 10 µM; Ki [9]: > 10 µM; Ki [10]: > 10 µM
CNc1ccccc1C1=N[C@@H](CO)[C@H](C)S1 (relative stereo)	3.6	> 10	1.9	8.5	> 10	> 10	1.2	> 10	> 10	> 10	–
C[C@@H]1SC(c2c[nH]c3ccccc23)=N[C@H]1CO (relative stereo)	2.8	> 10	5.4	2.7	> 10	> 10	2.4	> 10	> 10	> 10	–
C[C@@H]1SC(c2ccco2)=N[C@H]1CO (relative stereo)	> 10	> 10	> 10	> 10	> 10	> 10	> 10	> 10	> 10	> 10	–
CCCCCCCCOc1ccc(C2=N[C@@H](CO)[C@H](C)S2)cc1 (relative stereo)	> 10	> 10	3.6	> 10	> 10	6.9	> 10	> 10	> 10	> 10	IC50 [21]: > 10 µM
